According to PubChem BioAssay (NCI):
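96-well plates; 48 h exposure; 5 concentrations. Endpoints by linear interpolation between flanking doses. Not reached: highest tested concentration assigned. GI50 is the concentration that inhibits growth by half. TGI: concentration producing complete growth inhibition.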

Tests used:
Assay in all cases: NCI tumour cell line growth inhibition, 48 h
MDA-N = system: MDA-N
DLD-1 colon = system: DLD-1 colon
DMS 114 small cell lung = system: DMS 114 small cell lung
DMS 273 small cell lung = system: DMS 273 small cell lung
HOP-18 NSCLC = system: HOP-18 NSCLC
XF 498 CNS = system: XF 498 CNS
M19-MEL melanoma = system: M19-MEL melanoma
RXF-631 renal = system: RXF-631 renal
SNB-78 CNS = system: SNB-78 CNS

Compound | TGI (MDA-N) | TGI (DLD-1 colon) | TGI (DMS 114 small cell lung) | TGI (DMS 273 small cell lung) | TGI (HOP-18 NSCLC) | TGI (XF 498 CNS) | TGI (M19-MEL melanoma) | TGI (SNB-78 CNS) | also measured
COc1ccc(-c2cc(=O)c3ccc(C)nc3[nH]2)cc1 | > 100 µM | – | – | – | – | – | – | – | GI50 (MDA-N): 55.2 µM
CC(=O)[CH-]C(C)=O.CC(=O)[CH-]C(C)=O.[CH2-]CCC.[CH2-]CCC.[Sn+4] | – | 1.58 µM | 0.301 µM | 2.53 µM | 1.88 µM | 1.07 µM | – | – | GI50 (DLD-1 colon): 0.475 µM; GI50 (DMS 273 small cell lung): 1.19 µM; GI50 (HOP-18 NSCLC): 0.569 µM; GI50 (XF 498 CNS): 0.262 µM
CC(=O)OCC1OC(n2c(-c3ccc(Cl)cc3)ccc(C#N)c2=S)C(OC(C)=O)C(OC(C)=O)C1OC(C)=O (stereo not drawn) | > 100 µM | – | – | – | – | – | – | – | –
CC(C)=CCc1c(OC(=O)c2c(C)cc(O)cc2O)cc(CO)c(CO)c1O | 34.8 µM | – | – | – | – | – | – | – | –
CC(C)CCC(=O)c1ccoc1 | > 100 µM | – | – | – | – | – | – | – | –
CCCCCC(=O)C(C)C1=Nc2nnc(CCCCCCCc3nnc4n3C(=O)C(C(C)C(=O)CCCCC)=N4)n2C1=O (stereo not drawn) | – | > 100 µM | > 100 µM | – | > 100 µM | > 100 µM | > 100 µM | – | TGI (RXF-631 renal): > 100 µM
CCOC(=O)C1N(S(=O)(=O)c2ccc(C)cc2)CCC12c1ccccc1N(C(C)=O)C2c1ccc(OC)c(OC)c1 (stereo not drawn) | – | > 100 µM | > 100 µM | > 100 µM | – | > 100 µM | > 100 µM | > 100 µM | –
COc1ccc(OC)c(/C(C)=N/NC(N)=S)c1 | – | > 100 µM | > 100 µM | > 100 µM | > 100 µM | > 100 µM | > 100 µM | > 100 µM | –
C=C(C)C(=O)O[C@H]1C[C@@]23O[C@@H]2CCC(=C[C@H]2OC(=O)C(=C)[C@H]12)COC3O (stereo partly drawn) | > 100 µM | – | – | – | – | – | – | – | –
COc1ccc(S(=O)(=O)Nc2ccccc2C(=O)O)cc1 | – | > 100 µM | – | > 100 µM | > 100 µM | > 100 µM | > 100 µM | – | TGI (RXF-631 renal): > 100 µM
CC(C(=O)c1ccccc1)C(c1ccccc1)N1CCOCC1 (stereo not drawn) | > 100 µM | – | – | – | – | – | – | – | –
C=C(COC(C)=O)CC(OC(C)=O)c1ccccc1 (stereo not drawn) | – | > 100 µM | > 100 µM | > 100 µM | – | > 100 µM | > 100 µM | > 100 µM | –
CC1CCC2(CC1)NN=c1s/c(=C\c3ccc(O)cc3)c(=O)n1N2 (stereo not drawn) | – | > 100 µM | > 100 µM | > 100 µM | > 100 µM | > 100 µM | > 100 µM | > 100 µM | –
CC(C)CC(NC(=O)c1cccc(O)c1O)C(=O)NCc1cc(CNC(=O)C(CC(C)C)NC(=O)c2cccc(O)c2O)cc(CNC(=O)C(CC(C)C)NC(=O)c2cccc(O)c2O)c1 (stereo not drawn) | – | > 100 µM | 18.4 µM | 41.9 µM | > 100 µM | – | – | > 100 µM | –
CCC[CH2][Sn]1([CH2]CCC)[O]CC(Cc2ccccc2)[O]1 (stereo not drawn) | – | – | 3.59 µM | 11 µM | – | 3.23 µM | 15.6 µM | 7.46 µM | GI50 (DMS 114 small cell lung): 1.72 µM; GI50 (DMS 273 small cell lung): 2.81 µM; GI50 (M19-MEL melanoma): 2.83 µM; GI50 (RXF-631 renal): 1.57 µM; TGI (RXF-631 renal): 2.94 µM; GI50 (SNB-78 CNS): 2.61 µM; GI50 (XF 498 CNS): 1.74 µM
O=C1c2ccccc2C(Br)(Br)c2ccccc21 | – | > 31.6 µM | > 31.6 µM | > 31.6 µM | > 31.6 µM | 97.8 µM | > 31.6 µM | > 100 µM | –
Cc1ccc(SC(CCC(Sc2ccc(C)cc2)Sc2ccc(C)cc2)Sc2ccc(C)cc2)cc1 | – | > 100 µM | > 100 µM | > 100 µM | – | > 100 µM | > 100 µM | > 100 µM | TGI (RXF-631 renal): > 100 µM
Oc1[nH]c2ccccc2c1N=Nc1ccccn1 | > 100 µM | – | – | – | – | – | – | – | –
C[N-]c1nnnn1C.[Au+].c1ccc([PH+](c2ccccc2)c2ccccc2)cc1 | – | 5.02 µM | > 100 µM | – | 5.96 µM | – | 14.9 µM | > 69.1 µM | GI50 (DLD-1 colon): 2.05 µM; GI50 (DMS 114 small cell lung): 2.57 µM; GI50 (HOP-18 NSCLC): 2.35 µM; GI50 (M19-MEL melanoma): 2.9 µM; GI50 (SNB-78 CNS): 5.28 µM

Compound | TGI (MDA-N) | TGI (DLD-1 colon) | TGI (DMS 114 small cell lung) | TGI (DMS 273 small cell lung) | TGI (HOP-18 NSCLC) | TGI (XF 498 CNS) | TGI (M19-MEL melanoma) | TGI (SNB-78 CNS) | also measured
CC(=O)O[C@H]1CC[C@@]2(C)C(=CC[C@H]3[C@@H]4CC[C@H](c5cc(C(F)(F)F)n(C(C)=O)n5)[C@@]4(C)CC[C@@H]32)C1 | 23.6 µM | – | – | – | – | – | – | – | –
CC(=O)[O][Ga]([Cl])[O]C(C)=O | – | > 100 µM | > 100 µM | > 100 µM | > 100 µM | > 100 µM | > 100 µM | > 100 µM | GI50 (DLD-1 colon): > 100 µM; GI50 (DMS 114 small cell lung): > 100 µM; GI50 (DMS 273 small cell lung): > 100 µM; GI50 (HOP-18 NSCLC): > 100 µM; GI50 (M19-MEL melanoma): 65.6 µM; GI50 (RXF-631 renal): > 100 µM; TGI (RXF-631 renal): > 100 µM; GI50 (SNB-78 CNS): > 100 µM; GI50 (XF 498 CNS): > 100 µM
Cc1ccc(S(=O)(=O)NC(=O)C2C(=O)CC3(CCCCC3)CC2=O)cc1 | > 100 µM | – | – | – | – | – | – | – | –
[Cl-].[O-]/N=C(\c1ccccc1)c1ccccn1.[O-]/N=C(\c1ccccc1)c1ccccn1.[O-]/N=C(\c1ccccc1)c1ccccn1.[Sm+3] | – | > 100 µM | 72 µM | 95.1 µM | – | – | 45.7 µM | – | GI50 (DLD-1 colon): 33 µM; GI50 (DMS 114 small cell lung): 23 µM; GI50 (DMS 273 small cell lung): 28.7 µM; GI50 (M19-MEL melanoma): 21.2 µM
[Cl][Hg][Cl] | 28.9 µM | – | – | – | – | – | – | – | GI50 (MDA-N): 15.5 µM
Cc1[nH]c2ccccc2c1C(=O)CC1(O)C(=O)Nc2ccccc21 (stereo not drawn) | – | > 100 µM | – | > 100 µM | – | – | > 100 µM | > 100 µM | TGI (RXF-631 renal): > 100 µM
Cc1cc2c(ccc3c(C)cc(=O)oc32)o1 | – | > 100 µM | > 100 µM | > 100 µM | > 100 µM | > 100 µM | > 100 µM | > 100 µM | TGI (RXF-631 renal): > 100 µM
COC(=O)N(C(=O)OC)C(C(=O)O)C(C)C (stereo not drawn) | – | > 100 µM | > 100 µM | > 100 µM | > 100 µM | – | > 100 µM | > 100 µM | –
COc1ccc2c(CN3CCCCC3CO)cc3cc(OC)c(OC)cc3c2c1 (stereo not drawn) | – | > 100 µM | 15.8 µM | 11.7 µM | 38 µM | 18.9 µM | 11.4 µM | 23.1 µM | –
C=C1C(=O)O[C@@H]2C[C@@H](C)[C@@H]3C=CC(=O)[C@@]3(C)[C@@H](OC(=O)CC(=O)O[C@H]3[C@@H]4C(=C)C(=O)O[C@@H]4C[C@@H](C)[C@@H]4C=CC(=O)[C@]43C)[C@H]12 | 10.2 µM | < 0.0215 µM | 0.108 µM | 0.122 µM | 0.365 µM | 0.05 µM | 0.0376 µM | 0.101 µM | TGI (RXF-631 renal): 0.455 µM
CN(C)CC(C)(C)C(=O)/C=C/c1ccc(/C=C/C(=O)C(C)(C)CN(C)C)cc1 | – | 1.01 µM | 2.76 µM | 2.38 µM | – | 2.55 µM | 3.14 µM | – | TGI (RXF-631 renal): 4.14 µM
c1cc(N(CCn2cccn2)CCn2cccn2)cc(N(CCn2cccn2)CCn2cccn2)c1 | – | > 100 µM | > 100 µM | > 100 µM | – | > 100 µM | > 100 µM | > 100 µM | TGI (RXF-631 renal): > 100 µM
O=C(CP(=O)(O)O)NC(CC(=O)OCc1ccccc1)C(=O)OCc1ccccc1 (stereo not drawn) | > 100 µM | – | – | – | – | – | – | – | –
O=c1nc(/C=C/c2ccccc2Cl)cc2n1CCN2CCO | – | > 100 µM | > 100 µM | – | – | – | > 100 µM | – | –
O=C(CC(c1ccccc1)c1c(O)c2ccccc2oc1=O)c1ccccc1 (stereo not drawn) | > 100 µM | – | – | – | – | – | – | – | –
CCCC(=O)NC1=C(Cl)C(=O)c2ccccc2C1=O | 14.6 µM | – | – | – | – | – | – | – | –
Nc1ccccc1C(=O)CC1OC(=O)c2ccccc21 (stereo not drawn) | > 100 µM | – | – | – | – | – | – | – | –
CCCCCC[N+](C)(C)Cc1ccc(C[N+](C)(C)CCCCCC)cc1 | – | 26.5 µM | – | 3.73 µM | 21.8 µM | – | – | 5.15 µM | –
